In patent publication US5070210A, “Novel ketenimines as intermediates for insecticides” (ICI Americas Inc., priority 1990, dated 1991):

Key:
Assay type in all cases: in vivo
[1] = system: Housefly [Musca domestica]; assay: Housefly insecticidal test; conditions: μg per 25 female flies; mortality after 48 hours
In short: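 LC50, as μg compound per 25 female flies, comes from dosage-mortality curves with doses from 100 μg downward. Residues were made by evaporating acetone plus 0.01% peanut oil in dishes, onto which 1-2-day-old females were caged; deaths were counted after 48 hours.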

[2] = system: Tobacco Budworm [Heliothis virescens (Fabricius)] eggs; assay: Tobacco budworm egg test; conditions: 2-day old eggs, percent in solution
In short: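 Paper towel patches bearing 2-day old eggs were dipped in acetone solutions of compound, then set in petri dishes over larval rearing medium at 78° F. Mortality was scored once all control eggs had hatched and larvae were feeding. LC50, from dosage-mortality curves, is given as percent compound in solution.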

[3] = system: Cabbage Looper [Trichoplusia ni (Hubner)]; assay: Cabbage looper insecticidal test; conditions: second-instar larvae, percent in solution; 3-5 days
In short: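 Compounds in 50-50 acetone-water were applied by dipping squash cotyledons (about 1×1.5 in) for 2-3 s; dried leaves went into petri dishes on moist filter paper with 5 second-instar larvae under high humidity. Mortality was scored after 3-5 days; LC50 from dosage-mortality curves, as percent compound in solution.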

[4] = system: Aster Leafhopper [Macrosteles fascifrens (Stal)]; assay: Aster leafhopper insecticidal test; conditions: adults/nymphs, percent in solution; 48 hours
Procedure: The compounds in Tables 1 and 2 above were tested for insecticidal activity using the following testing procedures. LC50 values, based on the results of these tests and calculated according to dosage-mortality curves, are expressed in Table 3.
Aster Leafhopper [Macrosteles fascifrens (Stal)]
Oat seedlings (Avena sp) were grown in a commercial potting soil in cups. When the plants were approximately 10 cm tall they were thinned to three plants per cup and dipped for 2-3 seconds in 50-50 acetone-water solutions of the test compounds. When the plants had dried, a clear plastic tube was placed over them and the bottom end pressed into the cup. Ten aster leafhopper adults/nymphs were then placed in each tube and the tops of the tubes covered with white organdy cloth. Mortality counts were made after 48 hours. Test concentrations ranged from 0.05% down to that at which 50% mortality occurred. The LC50 values are expressed below in Table 3 under the heading "LH" in terms of the percent of the test compound in the solution.

[5] = system: Maize weevil [Sitophilus Zeamais (Motschulsky)]; assay: Maize weevil insecticidal test; conditions: adult weevils, percent in solution; 48 hours
In short: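 LC50, in percent of compound in solution, was derived from dosage-mortality curves after 48 h at about 25 °C. Ten adult weevils per container fed on four corn seeds briefly immersed in acetone:water (50:50) solutions of up to 0.01% and dried.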

SMILES | LC50, HF [1] [µg] | LC50, TBW, E (TBW-E) [2] [%] | LC50, CL [3] [%] | LC50, LH [4] [%] | LC50, MW [5] [%]
C=C(C)C(=Nc1ccc(Cl)cc1)OCc1cccc(Oc2ccccc2)c1 [Compound 6] | 17 | 0.015 | 0.02 | > 0.05 | > 0.01
CCC(=Nc1ccc(Cl)cc1)OCc1cccc(Oc2ccccc2)c1 [Compound 11] | 6 | > 0.1 | 0.025 | > 0.05 | > 0.01
CC(C)C(=Nc1cc(Cl)ccc1Cl)OCc1cccc(Oc2ccccc2)c1 [Compound 13] | > 100 | > 0.1 | 0.014 | > 0.05 | > 0.01
CC(C)C(=Nc1ccccc1Cl)OCc1cccc(Oc2ccccc2)c1 [Compound 17] | 75 | > 0.1 | 0.03 | > 0.05 | > 0.01
N#CC(=Nc1ccc(Cl)cc1)OCc1cccc(Oc2ccccc2)c1 [Compound 21] | 7 | > 0.1 | 0.02 | > 0.05 | > 0.01
CC(C)(C)C(=Nc1ccc(Cl)c(Cl)c1)OCc1cccc(Oc2ccccc2)c1 [Compound 25] | > 100 | > 0.1 | 0.01 | > 0.05 | > 0.01
FC(F)(F)C(=Nc1ccc(Cl)cc1)OCc1cccc(Oc2ccccc2)c1 [Compound 35] | 15 | 0.03 | 0.008 | > 0.05 | > 0.01
CC(C)C(=Nc1ccccc1)OCc1cccc(Oc2ccccc2)c1 [Compound 43] | 7 | 0.05 | 0.018 | > 0.05 | > 0.01
Fc1ccc(N=C(OCc2cccc(Oc3ccccc3)c2)C(F)F)cc1 [Compound 50] | 43 | > 0.05 | 0.02 | > 0.05 | > 0.01
CC(C)C(=Nc1ccccc1C(F)(F)F)OCc1cccc(Oc2ccccc2)c1 [Compound 72] | > 100 | > 0.1 | 0.08 | > 0.05 | > 0.01
CCS(=O)(=O)c1ccc(N=C(OCc2cccc(Oc3ccccc3)c2)C(C)C)cc1Cl [Compound 112] | > 100 | > 0.1 | 0.025 | > 0.05 | > 0.01
Fc1ccc(N=C(OCc2cccc(Oc3ccccc3)c2)C(F)(F)C(F)(F)F)cc1Cl [Compound 117] | 55 | > 0.1 | 0.006 | 0.0003 | > 0.01
CC(C)C(=Nc1ccc(F)c(Cl)c1)OCc1cccc(Oc2ccccc2F)c1 [Compound 119] | 27 | 0.048 | 0.0007 | 0.0008 | > 0.01
CCc1ccc(N=C(OCc2cccc(Oc3ccc(F)cc3)c2)C(C)C)cc1 [Compound 159] | 25 | 0.08 | 0.001 | 0.0025 | –
CCc1ccc(N=C(OCc2cccc(Oc3ccccc3)c2)C(C)C)cc1 [Compound 161] | 15 | 0.07 | 0.0014 | 0.002 | –
CCc1cccc(N=C(OCc2cccc(Oc3ccccc3)c2)C(C)(C)C)c1 [Compound 162] | > 100 | > 0.1 | 0.035 | > 0.05 | –

SMILES | LC50, HF [1] [µg] | LC50, TBW, E (TBW-E) [2] [%] | LC50, CL [3] [%] | LC50, LH [4] [%] | LC50, MW [5] [%]
CC(C)C(=Nc1ccc2c(c1)CCC2)OCc1cccc(Oc2ccccc2)c1 [Compound 187] | 15 | > 0.1 | 0.0025 | 0.0025 | –
CCCC(=Nc1ccc2c(c1)OCO2)OCc1cccc(Oc2ccccc2)c1 [Compound 188] | 12 | > 0.1 | 0.002 | > 0.05 | –
Cc1ccc(Oc2cccc(COC(=Nc3ccc(F)c(Cl)c3)C(C)C)c2)cc1 [Compound 225] | > 100 | > 0.1 | 0.0025 | > 0.05 | –
CC(C)C(=Nc1ccc(C(C)C)cc1)OCc1cccc(Oc2ccc(F)cc2)c1 [Compound 228] | > 100 | > 0.1 | 0.0025 | > 0.05 | –
CC(C)C(=Nc1ccc2c(c1)OC(C)(C)O2)OCc1ccc(F)c(Oc2ccccc2)c1 [Compound 242] | < 100 | > 0.1 | 0.00025 | > 0.05 | –
CSc1ccc(Oc2cccc(COC(=Nc3ccc(F)cc3)C(C)C)c2)cc1 [Compound 257] | > 100 | > 0.1 | 0.008 | > 0.05 | –
Fc1ccc(Oc2cccc(COC(=Nc3ccc(F)c(Cl)c3)C(F)(F)C(F)(F)F)c2)cc1 [Compound 258] | > 100 | > 0.1 | 0.003 | > 0.05 | –
CC(C)C(=Nc1cc(F)ccc1Cl)OCc1ccc(F)c(Oc2ccc(F)cc2)c1 [Compound 303] | > 100 | > 0.1 | 0.0015 | 0.0005 | –
CC(C)C(=Nc1ccc(Cl)cc1)OC(C)c1cccc(Oc2ccccc2)c1 (centres unmarked) [Compound 457] | > 100 | > 0.05 | 0.009 | > 0.05 | –
CC(C)C(=Nc1ccc2c(c1)OCO2)OCc1cccc(Oc2ccc(F)cc2)n1 [Compound 465] | 8 | 0.027 | 0.0017 | 0.0025 | –
COCc1c(F)c(F)c(COC(=Nc2ccc(F)c(Cl)c2F)C(C)C)c(F)c1F [Compound 522] | – | > 0.1 | > 0.1 | 0.05 | > 0.01
CC(C)C(=Nc1cccc(C(F)(F)F)c1)OCc1cc(Oc2ccc(F)cc2)ccn1 [Compound 528] | – | > 0.1 | 0.0075 | > 0.05 | > 0.01
CC(C)C(=Nc1ccc(F)c(Cl)c1)OCc1cc(Oc2ccc(F)cc2)ccn1 [Compound 529] | – | > 0.1 | > 0.0025 | > 0.05 | > 0.01
CC(C)C(=Nc1ccc(F)c(Cl)c1)OCc1cccc(Cc2ccccc2)c1 [Compound 541] | < 100 | – | 0.001 | > 0.05 | > 0.01
CC(C)C(=Nc1ccc(C(F)(F)F)cc1)OCc1cccc(Cc2ccccc2)c1 [Compound 543] | < 100 | – | 0.0008 | < 0.05 | > 0.01
